For 27 molecules, EC50 results are on record in patent US20200055839A1 (priority 2017, published 2020).

This experiment relates to NL-RLuc virus. The experiment in a line: Inhibition of HIV replication (NL-RLuc virus, luciferase readout in MT-2 cells). It is filed as cell-based. As to conditions: Human immunodeficiency virus 1, MT2, 120 h, MT-2 cells infected with NL-RLuc virus, 5 days of incubation, 10% FBS, at least 2 experiments. The gist of the method:
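MT-2 cells infected with NL4-3-derived virus carrying Renilla luciferase in place of part of nef, grown 5 days with serial compound dilutions in RPMI 1640/10% FBS. Virus growth read as luciferase expression. EC50 from median effect equation, at least 2 experiments.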
As for `Cc1ncc(-c2ccc(C(F)(F)CC(C)C)cn2)c(N2CCC(C)(C)CC2)c1[C@H](OC(C)(C)C)C(=O)O` [Example 274, (S)-2-(tert-Butoxy)-2-(5-(1,1-difluoro-3-methylbutyl)-4′-(4,4-dimethylpiperidin-1-yl)-6′-methyl-[2, 3′-bipyridin]-5′-yl)acetic acid], a half-maximal effect (EC50) was put at 16 nM. The same measure for `Cc1ncc(-c2ccc(OCC(C)C)c(C(F)(F)F)n2)c(N2CCC(C)(C)CC2)c1[C@H](OC(C)(C)C)C(=O)O` [Example 275, (S)-2-(tert-Butoxy)-2-(4′-(4,4-dimethylpiperidin-1-yl)-5-isobutoxy-6′-methyl-6-(trifluoromethyl)-[2, 3′-bipyridin]-5′-yl)acetic acid]: 8 nM. For `CCCCC(F)(F)c1ccc(-c2cnc(C)c([C@H](OC(C)(C)C)C(=O)O)c2N2CCC(C)(C)CC2)nc1` [Example 276, (S)-2-(tert-Butoxy)-2-(5-(1,1-difluoropentyl)-4′-(4,4-dimethylpiperidin-1-yl)-6′-methyl-[2, 3′-bipyridin]-5′-yl)acetic acid], the half-maximal effective concentration (EC50) (as a rule, the concentration needed to bring the measured effect to its halfway point) stood at 14 nM.

Molecule `CCc1ncc(-c2ccc(OCC(C)C)cn2)c(N2CCC(C)(C)CC2)c1[C@H](OC(C)(C)C)C(=O)O` [Example 277, (S)-2-(tert-Butoxy)-2-(4′-(4,4-dimethylpiperidin-1-yl)-6′-ethyl-5-isobutoxy-[2, 3′-bipyridin]-5′-yl)acetic acid] displayed an EC50 of 6 nM. In turn, `CC(C)COc1ccc(-c2cnc(CF)c([C@H](OC(C)(C)C)C(=O)O)c2N2CCC(C)(C)CC2)nc1` [Example 278, (S)-2-(tert-Butoxy)-2-(4′-(4,4-dimethylpiperidin-1-yl)-6′-(fluoromethyl)-5-isobutoxy-[2, 3′-bipyridin]-5′-yl)acetic acid] gave an EC50 of 4 nM. `CCCCOc1ccc(-c2cnc(CC)c([C@H](OC(C)(C)C)C(=O)O)c2N2CCC(C)(C)CC2)nc1` [Example 279, (S)-2-(tert-Butoxy)-2-(5-butoxy-4′-(4,4-dimethylpiperidin-1-yl)-6′-ethyl-[2, 3′-bipyridin]-5′-yl)acetic acid]: a half-maximal response (EC50) required 6 nM.

The molecule `Cc1ncc(-c2cccc(OCCc3ccc(F)cc3)n2)c(N2CCC(C)(C)CC2)c1[C@H](OC(C)(C)C)C(=O)O` [Example 280, (S)-2-(tert-Butoxy)-2-(4′-(4,4-dimethylpiperidin-1-yl)-6-(4-fluorophenethoxy)-6′-methyl-[2, 3′-bipyridin]-5′-yl)acetic acid] returned an EC50 of 20 nM. `Cc1cccc(Cl)c1COc1ccc(-c2cnc(C)c([C@H](OC(C)(C)C)C(=O)O)c2N2CCC(C)(C)CC2)nc1` [Example 283, (S)-2-(tert-Butoxy)-2-(5-((2-chloro-6-methylbenzyl)oxy)-4′-(4,4-dimethylpiperidin-1-yl)-6′-methyl-[2, 3′-bipyridin]-5′-yl)acetic acid] came in with an EC50 of 3 nM. Then `Cc1cccc(Cl)c1CCOc1ccc(-c2cnc(C)c([C@H](OC(C)(C)C)C(=O)O)c2N2CCC(C)(C)CC2)nc1` [Example 284, (S)-2-(tert-Butoxy)-2-(5-(2-chloro-6-methylphenethoxy)-4′-(4,4-dimethylpiperidin-1-yl)-6′-methyl-[2, 3′-bipyridin]-5′-yl)acetic acid], with 3 nM. In turn, `Cc1ncc(-c2ccc(OCCc3ccccc3)cn2)c(N2CCC(C)(C)CC2)c1[C@H](OC(C)(C)C)C(=O)O` [Example 285, (S)-2-(tert-Butoxy)-2-(4′-(4,4-dimethylpiperidin-1-yl)-6′-methyl-5-phenethoxy-[2, 3′-bipyridin]-5′-yl)acetic acid] registered an EC50 of 0.6 nM. For `Cc1cc(F)ccc1CCOc1ccc(-c2cnc(C)c([C@H](OC(C)(C)C)C(=O)O)c2N2CCC(C)(C)CC2)nc1` [Example 286, (S)-2-(tert-Butoxy)-2-(4′-(4,4-dimethylpiperidin-1-yl)-5-(4-fluoro-2-methylphenethoxy)-6′-methyl-[2, 3′-bipyridin]-5′-yl)acetic acid], the EC50 came out at 1 nM. For the molecule `Cc1ncc(-c2ccc(O)cn2)c(N2CCC(C)(C)CC2)c1[C@H](OC(C)(C)C)C(=O)O` [Example 287, (S)-2-(tert-Butoxy)-2-(4′-(4,4-dimethylpiperidin-1-yl)-5-hydroxy-6′-methyl-[2, 3′-bipyridin]-5′-yl)acetic acid], the EC50 was found to be 379 nM.

Consider `Cc1ncc(-c2ccc(OCc3ccccc3)cn2)c(N2CCC(C)(C)CC2)c1[C@H](OC(C)(C)C)C(=O)O` [Example 288, (S)-2-(5-(Benzyloxy)-4′-(4,4-dimethylpiperidin-1-yl)-6′-methyl-[2, 3′-bipyridin]-5′-yl)-2-(tert-butoxy)acetic acid], for which the 50% effective concentration (EC50) was 1 nM.

In turn, `Cc1ccccc1CCOc1ccc(-c2cnc(C)c([C@H](OC(C)(C)C)C(=O)O)c2N2CCC(C)(C)CC2)nc1` [Example 289, (2S)-2-(tert-butoxy)-2-[4′-(4,4-dimethylpiperidin-1-yl)-6′-methyl-5-[2-(2-methylphenyl)ethoxy]-[2,3′-bipyridine]-5′-yl]acetic acid] had an EC50 of 1 nM.

Consider `Cc1cccc(CCOc2ccc(-c3cnc(C)c([C@H](OC(C)(C)C)C(=O)O)c3N3CCC(C)(C)CC3)nc2)c1` [Example 290, (2S)-2-(tert-butoxy)-2-[4′-(4,4-dimethylpiperidin-1-yl)-6′-methyl-5-[2-(3-methylphenyl)ethoxy]-[2,3′-bipyridine]-5′-yl]acetic acid], for which a half-maximal response (EC50) required 1 nM. The same measure for `COc1ccc(CCOc2ccc(-c3cnc(C)c([C@H](OC(C)(C)C)C(=O)O)c3N3CCC(C)(C)CC3)nc2)cc1C` [Example 291, (2S)-2-(tert-butoxy)-2-[4′-(4,4-dimethylpiperidin-1-yl)-5-[2-(4-methoxy-3-methylphenyl)ethoxy]-6′-methyl-[2,3′-bipyridine]-5′-yl]acetic acid]: 2 nM; for `COc1ccc(CCOc2ccc(-c3cnc(C)c([C@H](OC(C)(C)C)C(=O)O)c3N3CCC(C)(C)CC3)nc2)c(C)c1` [Example 292, (2S)-2-(tert-butoxy)-2-[4′-(4,4-dimethylpiperidin-1-yl)-5-[2-(4-methoxy-2-methylphenyl)ethoxy]-6′-methyl-[2,3′-bipyridine]-5′-yl]acetic acid]: 2 nM; for `COc1ccc(CCOc2ccc(-c3cnc(C)c([C@H](OC(C)(C)C)C(=O)O)c3N3CCC(C)(C)CC3)nc2)cc1` [Example 293, (2S)-2-(tert-butoxy)-2-[4′-(4,4-dimethylpiperidin-1-yl)-5-[2-(4-methoxyphenyl)ethoxy]-6′-methyl-[2,3′-bipyridine]-5′-yl]acetic acid]: 1 nM. `Cc1cc(CCOc2ccc(-c3cnc(C)c([C@H](OC(C)(C)C)C(=O)O)c3N3CCC(C)(C)CC3)nc2)ccc1F` [Example 294, (2S)-2-(tert-butoxy)-2-[4′-(4,4-dimethylpiperidin-1-yl)-5-[2-(4-fluoro-3-methylphenyl)ethoxy]-6′-methyl-[2,3′-bipyridine]-5′-yl]acetic acid] came in with an EC50 of 2 nM. Turning to `Cc1ccc(F)cc1CCOc1ccc(-c2cnc(C)c([C@H](OC(C)(C)C)C(=O)O)c2N2CCC(C)(C)CC2)nc1` [Example 295, (2S)-2-(tert-butoxy)-2-[4′-(4,4-dimethylpiperidin-1-yl)-5-[2-(5-fluoro-2-methylphenyl)ethoxy]-6′-methyl-[2,3′-bipyridine]-5′-yl]acetic acid], the concentration for a half-maximal effect (EC50) came to 2 nM. As for `COc1ccccc1CCOc1ccc(-c2cnc(C)c([C@H](OC(C)(C)C)C(=O)O)c2N2CCC(C)(C)CC2)nc1` [Example 296, (2S)-2-(tert-butoxy)-2-[4′-(4,4-dimethylpiperidin-1-yl)-5-[2-(2-methoxyphenyl)ethoxy]-6′-methyl-[2,3′-bipyridine]-5′-yl]acetic acid], the EC50 is 2 nM. For `Cc1ncc(-c2ccc(OCCc3c(Cl)cccc3Cl)cn2)c(N2CCC(C)(C)CC2)c1[C@H](OC(C)(C)C)C(=O)O` [Example 297, (2S)-2-(tert-butoxy)-2-{5-[2-(2,6-dichlorophenyl)ethoxy]-4′-(4,4-dimethylpiperidin-1-yl)-6′-methyl-[2,3′-bipyridine]-5′-yl}acetic acid], a half-maximal response (EC50) required 1 nM.

Molecule `Cc1ncc(-c2ccc(OCCc3c(F)cc(F)cc3F)cn2)c(N2CCC(C)(C)CC2)c1[C@H](OC(C)(C)C)C(=O)O` [Example 298, (2S)-2-(tert-butoxy)-2-[4′-(4,4-dimethylpiperidin-1-yl)-6′-methyl-5-[2-(2,4,6-trifluorophenyl)ethoxy]-[2,3′-bipyridine]-5′-yl]acetic acid] yielded a 50% effective concentration (EC50) of 1 nM. For `Cc1ncc(-c2ccc(OCCc3ccc(F)c(F)c3)cn2)c(N2CCC(C)(C)CC2)c1[C@H](OC(C)(C)C)C(=O)O` [Example 299, (2S)-2-(tert-butoxy)-2-{5-[2-(3,4-difluorophenyl)ethoxy]-4′-(4,4-dimethylpiperidin-1-yl)-6′-methyl-[2,3′-bipyridine]-5′-yl}acetic acid], it took 1 nM to reach a half-maximal effect (EC50). Molecule `Cc1ccc(CCOc2ccc(-c3cnc(C)c([C@H](OC(C)(C)C)C(=O)O)c3N3CCC(C)(C)CC3)nc2)cc1` [Example 300, (2S)-2-(tert-butoxy)-2-[4′-(4,4-dimethylpiperidin-1-yl)-6′-methyl-5-[2-(4-methylphenyl)ethoxy]-[2,3′-bipyridine]-5′-yl]acetic acid] showed an EC50 of 1 nM.

`COc1cccc(CCOc2ccc(-c3cnc(C)c([C@H](OC(C)(C)C)C(=O)O)c3N3CCC(C)(C)CC3)nc2)c1` [Example 301, (2S)-2-(tert-butoxy)-2-[4′-(4,4-dimethylpiperidin-1-yl)-5-[2-(3-methoxyphenyl)ethoxy]-6′-methyl-[2,3′-bipyridine]-5′-yl]acetic acid] yielded an EC50 of 1 nM.

The molecule `Cc1ncc(-c2ccc(OCCc3ccccc3Cl)cn2)c(N2CCC(C)(C)CC2)c1[C@H](OC(C)(C)C)C(=O)O` [Example 302, (2S)-2-(tert-butoxy)-2-{5-[2-(2-chlorophenyl)ethoxy]-4′-(4,4-dimethylpiperidin-1-yl)-6′-methyl-[2,3′-bipyridine]-5′-yl}acetic acid] came in with a 50% effective concentration (EC50) of 0.6 nM.
